Source: patent US11589584B2, “Synergistic combination of 1,3-bis(hydroxymethyl)-5,5-dimethylimidazolidine-2,4-dione with glyoxal” (MC (US) 3 LLC, priority 2018, dated 2023)

Test system: Pseudomonas aeruginosa (ATCC 8739) and Escherichia coli (ATCC 10145) mixed microorganism culture
Test: Synergy in the planktonic phase: 48 h biocide challenge, regrowth read by turbidity in recovery media
Assay type: cell-based
Settings: P. aeruginosa/E. coli mixed inoculum, phosphate buffer pH 7.3, 30° C., 48 hour challenge
Description: […] cultures were separately prepared from glycerol stocks. First they were streak plated and validated with a microscope. Single colonies were picked and used to inoculate 200 mL shake flasks that were grown statically overnight at 30° C. (30 grams/L Tryptic Soy Broth) to produce the initial inoculum of mixed microorganism culture. A deep-well 96 well challenge plate (2 mL maximum well volume) was prepared using 900 μL/well phosphate buffer at pH 7.3, (0.0027M potassium chloride, 0.137 M sodium chloride). Inoculation took place at the start of the experiments (with a 100 μL combined inoculum, adding to the 900 μL buffer to total 1 mL/well). […]
The inoculated assay block was challenged at 30° C. for 48 hours. […] This was done in triplicate for each point (the triplicate is already present in the biocide block viz. each point is truly determined in triplicate). […]
The recovery plates were subsequently read (checked for microbial growth) at 72 hours after addition of the culture, to recovery media. Ranking of biocidal efficacy was done by recording the development of turbidity within each well (determined by visual inspection). […] Ranking was done per average value of three data points determined per experiment. (Recorded in log regrowth).
Synergy Ratio Determined Using the Following Formulae. […]

| Structure (SMILES) | DMDMH standalone 48 h pass (biocide used alone (QA)) [ppm] | Glyoxal standalone 48 h pass (used alone (QB)) [ppm] |
| --- | --- | --- |
| CC1(C)C(=O)N(CO)C(=O)N1CO [DMDMH, 1,3-Bis(hydroxymethyl)-5,5-dimethylimidazolidine-2,4-dione] | 420 |  |
| O=CC=O [Glyoxal, oxaldehyde] |  | 1800 |
